Measured values as given in ChEMBL document CHEMBL5579825, “Exploration of 1-(indolin-1-yl)-2-(thiazol-2-yl)ethan-1-one derivatives as novel anti-HBV agent with potential TLR7-agonistic effect” (Eur J Med Chem, 2024).
The source made the active and inactive calls. No cut-off for these calls is given here.

What was measured:
[1] = Inhibition of HBsAg secretion in human HepG2.2.15 cells treated for 6 days with replacement of medium containing compound on every 2 days by […]; format: functional, cell-based; conditions: HepG2 2.2.15
[2] = Cytotoxicity against human HepG2.2.15 cells incubated for 72 hrs by CCK8 assay; format: toxicity, cell-based, HepG2 2.2.15
[3] = Selectivity index, ratio of CC50 for human HepG2.2.15 cells to IC50 for HBV infected in human HepG2.2.15 cells assessed as inhibition of viral DNA replication; format: toxicity, cell-based; conditions: HepG2.2.15 cells, read-out: Ratio CC50/IC50
Hepatitis B virus [4] = assay: (§1) Antiviral activity against HBV infected in human HepG2.2.15 cells assessed as inhibition of viral DNA replication pre-transfected cells with viral genome followed by compound treatment for 6 days with replacement of medium containing compound on every 2 days by RT-PCR analysis; format: functional, organism-based
Hepatitis B virus [5] = assay: as §1, with “replication at 4 uM” for “replication”, “analysis relative to control” for “analysis”; format: functional; conditions: for inhibition at 4 µM: HepG2.2.15, 144 h, time 6 day; for inhibition: time 6.0 day
[6] = Selectivity index, ratio of CC50 for human HepG2.2.15 cells to IC50 for HBsAg secretion in human HepG2.2.15 cells; format: toxicity, cell-based; conditions: for selectivity ratio: HepG2.2.15 cells, read-out: Ratio CC50/IC50
Hepatitis B virus [7] = assay: Antiviral activity against HBV infected in human HepG2.2.15 cells assessed as inhibition of viral DNA replication at 4 uM pre-transfected cells with viral genome followed by compound treatment for 72 hrs by RT-PCR analysis relative to control; format: functional
[8] = Selectivity index, ratio of CC50 for human HepG2.A64 cells to IC50 for HBV infected in human HepG2.A64 cells assessed as inhibition of viral DNA replication; format: toxicity, cell-based; conditions: read-out: Ratio CC50/IC50
Hepatitis B virus [9] = assay: Antiviral activity against HBV infected in human HepG2.A64 cells assessed as inhibition of viral DNA replication pre-transfected cells with viral genome followed by compound treatment for 3 days by RT-PCR analysis; format: functional, organism-based; conditions: HepG2.A64, 72 h
Hepatitis B virus [10] = assay: Antiviral activity against HBV infected in LAM/ETV-resistant human HepG2.A64 cells assessed as inhibition of viral DNA replication at 4 uM pre-transfected cells with viral genome followed by compound treatment for 72 hrs by RT-PCR analysis relative to control; format: functional
[11] = Cytotoxicity against human HepG2.A64 cells incubated for 72 hrs by CCK8 assay; format: toxicity, cell-based
Hepatitis B virus [12] = assay: Antiviral activity against HBV infected in human HepG2.2.15 cells assessed as inhibition of viral DNA replication at 10 uM pre-transfected cells with viral genome followed by compound treatment for 72 hrs by RT-PCR analysis relative to control; format: functional
Hepatitis B virus [13] = assay: Antiviral activity against HBV infected in LAM/ETV-resistant human HepG2.A64 cells assessed as inhibition of viral DNA replication at 10 uM pre-transfected cells with viral genome followed by compound treatment for 72 hrs by RT-PCR analysis relative to control; format: functional
Hepatitis B virus [14] = assay: Antiviral activity against HBV infected in LAM/ETV-resistant human HepG2.A64 cells assessed as inhibition of viral DNA replication at 100 uM pre-transfected cells with viral genome followed by compound treatment for 72 hrs by RT-PCR analysis relative to control; format: functional
Hepatitis B virus [15] = assay: Antiviral activity against HBV infected in human HepG2.2.15 cells assessed as inhibition of viral DNA replication at 100 uM pre-transfected cells with viral genome followed by compound treatment for 72 hrs by RT-PCR analysis relative to control; format: functional

SMILES | IC50 [1] [µM] | CC50 at 72 h [2] [µM] | selectivity ratio [3] | IC50 (Hepatitis B virus [4]) [µM] | inhibition at 4 µM (Hepatitis B virus [5]) [%] | also measured
O=C(Cc1csc(COc2ccccc2F)n1)N1CCc2cc(Br)ccc21 | 44.7 | > 50 | > 116 | 0.43 | 72.6 | selectivity ratio [6]: > 0.89
O=C(Cc1csc(COc2ccccc2C(F)(F)F)n1)N1CCc2ccccc21 | > 50 | > 50 | > 75.8 | 0.66 | 74.5 | Ratio CC50/IC50 [6]: Not Active
Cc1ccccc1OCc1nc(CC(=O)N2CCc3ccccc32)cs1 | – | – | – | – | 22.6 | –
Cc1ccc2c(c1)N(C(=O)Cc1csc(COc3ccccc3)n1)CC2 | – | – | – | – | – | inhibition (Hepatitis B virus [5]): inactive
O=C(Cc1csc(COc2ccccc2)n1)N1CCc2ccc(Br)cc21 | – | – | – | – | 14.1 | –
Cc1ccc2c(c1)CCN2C(=O)Cc1csc(COc2ccccc2)n1 | – | – | – | – | 40.5 | –
O=C(Cc1csc(COc2ccccc2)n1)N1CCc2c(Br)cccc21 | – | – | – | – | – | inhibition (Hepatitis B virus [5]): inactive
O=C(Cc1csc(COc2ccccc2)n1)N1CCc2cccc(F)c21 | – | – | – | – | 34.6 | –
COc1cccc2c1CCN2C(=O)Cc1csc(COc2ccccc2)n1 | – | – | – | – | 4.26 | –
COc1ccccc1OCc1nc(CC(=O)N2CCc3ccccc32)cs1 | – | – | – | – | 45.5 | –
O=C(Cc1csc(COc2ccccc2)n1)N1CCc2cc(Cl)ccc21 | 26.1 | > 50 | > 217 | 0.23 | 80 | inhibition at 4 µM (Hepatitis B virus [7]): 74.5%; selectivity ratio [8]: > 35.1; IC50 (Hepatitis B virus [9]): 0.57 µM; inhibition at 4 µM (Hepatitis B virus [10]): 73.7%; CC50 at 72 h [11]: > 20 µM; selectivity ratio [6]: > 1.92
COc1cccc2c1N(C(=O)Cc1csc(COc3ccccc3)n1)CC2 | – | – | – | – | 41.3 | –
O=C(Cc1csc(COc2cccc(Cl)c2)n1)N1CCc2ccccc21 | – | – | – | – | – | inhibition (Hepatitis B virus [5]): inactive
Cc1cccc(OCc2nc(CC(=O)N3CCc4ccccc43)cs2)c1 | 20.4 | > 50 | > 67.6 | 0.74 | 65.4 | selectivity ratio [6]: > 2.45
C=C1[C@H](CO)[C@@H](O)C[C@@H]1n1cnc2c(=O)[nH]c(N)nc21 [ENTECAVIR ANHYDROUS] | – | – | – | – | – | inhibition at 10 µM (Hepatitis B virus [12]): 98.1%; inhibition at 10 µM (Hepatitis B virus [13]): 20.1%
O=C(Cc1csc(COc2ccccc2)n1)N1CCc2cccc(Br)c21 | > 50 | > 50 | > 16.3 | 3.07 | 51.6 | Ratio CC50/IC50 [6]: Not Active
Nc1ccn([C@@H]2CS[C@H](CO)O2)c(=O)n1 [LAMIVUDINE] | > 100 | > 100 | > 1000 | < 0.1 | 90.8 | inhibition at 100 µM (Hepatitis B virus [14]): 17.8%; IC50 (Hepatitis B virus [9]): > 100 µM; inhibition at 100 µM (Hepatitis B virus [15]): 92.3%; CC50 at 72 h [11]: > 100 µM; Ratio CC50/IC50 [6]: Not Active
O=C(Cc1csc(COc2cccc(C(F)(F)F)c2)n1)N1CCc2ccccc21 | 41.6 | > 50 | > 14.2 | 3.51 | 50.9 | selectivity ratio [6]: > 1.2
O=C(Cc1csc(COc2ccccc2)n1)N1CCc2c(F)cccc21 | 30.5 | > 50 | > 12.8 | 3.9 | 52.2 | selectivity ratio [6]: > 1.64
O=C(Cc1csc(COc2ccc(C(F)(F)F)cc2)n1)N1CCc2ccccc21 | 39.5 | > 50 | > 76.9 | 0.65 | 70.2 | selectivity ratio [6]: > 1.27

SMILES | IC50 [1] [µM] | CC50 at 72 h [2] [µM] | selectivity ratio [3] | IC50 (Hepatitis B virus [4]) [µM] | inhibition at 4 µM (Hepatitis B virus [5]) [%] | also measured
O=C(Cc1csc(COc2cccc(F)c2)n1)N1CCc2ccccc21 | – | – | – | – | – | inhibition (Hepatitis B virus [5]): inactive
O=C(Cc1csc(COc2ccccc2)n1)N1CCc2c(Cl)cccc21 | – | – | – | – | 33.9 | –
COc1ccc2c(c1)N(C(=O)Cc1csc(COc3ccccc3)n1)CC2 | – | – | – | – | 18.6 | –
COc1ccc2c(c1)CCN2C(=O)Cc1csc(COc2ccccc2)n1 | 39.1 | > 50 | > 17.6 | 2.84 | 57.7 | selectivity ratio [6]: > 1.28
O=C(Cc1csc(COc2ccccc2Cl)n1)N1CCc2ccccc21 | – | – | – | – | 15.7 | –
Cc1ccc(OCc2nc(CC(=O)N3CCc4ccccc43)cs2)cc1 | – | – | – | – | 39.4 | –
O=C(Cc1csc(COc2ccc(F)cc2)n1)N1CCc2ccccc21 | – | – | – | – | 19.1 | –
O=C(Cc1csc(COc2ccc(Br)cc2)n1)N1CCc2ccccc21 | – | – | – | – | 25.7 | –
O=C(Cc1csc(COc2ccccc2)n1)N1CCc2cc(F)ccc21 | – | – | – | – | 18.7 | –
COc1ccc(OCc2nc(CC(=O)N3CCc4ccccc43)cs2)cc1 | – | – | – | – | 34.5 | –
O=C(Cc1csc(COc2ccccc2)n1)N1CCc2ccccc21 | > 50 | > 50 | > 2.91 | 17.2 | 45.4 | Ratio CC50/IC50 [6]: Not Active
O=C(Cc1csc(COc2ccccc2)n1)N1CCc2ccc(Cl)cc21 | 42.2 | > 50 | > 80.7 | 0.62 | 59.6 | selectivity ratio [6]: > 1.19
O=C(Cc1csc(COc2cccc(Br)c2)n1)N1CCc2ccccc21 | 42.7 | > 50 | > 59.5 | 0.84 | 73.4 | selectivity ratio [6]: > 1.17
O=C(Cc1csc(COc2ccccc2)n1)N1CCc2cc(Br)ccc21 | > 50 | > 50 | > 132 | 0.38 | 94 | Ratio CC50/IC50 [6]: Not Active
O=C(Cc1csc(COc2ccccc2Br)n1)N1CCc2ccccc21 | – | – | – | – | – | inhibition (Hepatitis B virus [5]): inactive
Cc1cccc2c1N(C(=O)Cc1csc(COc3ccccc3)n1)CC2 | – | – | – | – | 13.9 | –
COc1cccc(OCc2nc(CC(=O)N3CCc4ccccc43)cs2)c1 | – | – | – | – | 8.33 | –
O=C(Cc1csc(COc2ccccc2)n1)N1CCc2cccc(Cl)c21 | > 50 | > 50 | > 49.5 | 1.01 | 65.9 | Ratio CC50/IC50 [6]: Not Active
O=C(Cc1csc(COc2ccccc2)n1)N1CCc2ccc(F)cc21 | – | – | – | – | 34.2 | –
